Data set [1] concerns the target T1, soluble guanylate cyclase (sGC) (Bos taurus, UniProt P16068).
T1 construct: The sGC employed had been isolated from bovine lung; from tissue; host or cells: bovine lung
T1 sequence (P16068 1-619): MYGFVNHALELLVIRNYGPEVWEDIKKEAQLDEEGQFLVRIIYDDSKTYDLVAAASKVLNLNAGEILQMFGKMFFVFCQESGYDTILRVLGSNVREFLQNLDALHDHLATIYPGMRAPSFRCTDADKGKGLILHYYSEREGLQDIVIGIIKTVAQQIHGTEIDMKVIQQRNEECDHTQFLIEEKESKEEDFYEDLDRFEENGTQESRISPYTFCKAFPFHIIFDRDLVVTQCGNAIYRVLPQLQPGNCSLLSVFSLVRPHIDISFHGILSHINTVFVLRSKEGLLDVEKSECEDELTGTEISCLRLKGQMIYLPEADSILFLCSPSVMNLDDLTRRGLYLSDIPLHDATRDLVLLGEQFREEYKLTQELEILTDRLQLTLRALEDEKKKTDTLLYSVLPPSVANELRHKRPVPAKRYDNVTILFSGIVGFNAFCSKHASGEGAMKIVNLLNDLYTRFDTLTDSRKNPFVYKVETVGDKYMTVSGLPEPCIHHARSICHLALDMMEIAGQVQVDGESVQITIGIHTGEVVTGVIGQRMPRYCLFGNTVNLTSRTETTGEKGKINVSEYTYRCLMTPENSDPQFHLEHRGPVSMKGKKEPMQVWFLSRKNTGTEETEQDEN
T1 sequence (P19687 1-691 partner): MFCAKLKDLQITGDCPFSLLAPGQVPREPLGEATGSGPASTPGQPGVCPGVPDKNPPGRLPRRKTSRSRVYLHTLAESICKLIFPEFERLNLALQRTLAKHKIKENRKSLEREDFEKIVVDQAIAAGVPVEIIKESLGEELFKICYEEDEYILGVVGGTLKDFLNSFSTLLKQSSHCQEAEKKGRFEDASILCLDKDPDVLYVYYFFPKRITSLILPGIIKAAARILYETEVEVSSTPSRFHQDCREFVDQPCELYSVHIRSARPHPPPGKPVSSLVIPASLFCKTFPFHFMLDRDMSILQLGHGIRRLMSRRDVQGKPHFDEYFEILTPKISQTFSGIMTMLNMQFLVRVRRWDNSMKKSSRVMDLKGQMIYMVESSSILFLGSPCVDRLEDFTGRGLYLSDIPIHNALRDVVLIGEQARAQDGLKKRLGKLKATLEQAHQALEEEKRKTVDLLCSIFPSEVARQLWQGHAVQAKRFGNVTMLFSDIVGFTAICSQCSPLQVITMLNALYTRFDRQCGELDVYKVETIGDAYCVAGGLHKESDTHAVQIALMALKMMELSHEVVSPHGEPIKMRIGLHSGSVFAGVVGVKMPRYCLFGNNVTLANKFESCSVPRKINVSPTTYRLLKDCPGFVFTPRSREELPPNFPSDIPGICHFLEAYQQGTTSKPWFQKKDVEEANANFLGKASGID
Briefly: Activation of soluble guanylate cyclase (cGMP enzyme immunoassay). Format: biochemical. Conditions: sGC isolated from bovine lung, stimulation of basal enzyme activity vs solvent control. The protocol: The activation of soluble guanylate cyclase (sGC), which catalyzes the conversion of guanosine triphosphate (GTP) to cyclic guanosine monophosphate (cGMP) and pyrophosphate, by the compounds according to the invention was quantified with the aid of an enzyme immunoassay (EIA) from Amersham. For this, the test substances were first incubated with sGC in microtiter plates and then the quantity of the resulting cGMP was determined.
The sGC employed had been isolated from bovine lung (see Methods in Enzymology, Volume 195, p. 377). The test solutions (100 μl per well) contained 50 mM triethanolamine (TEA) buffer (pH 7.5), 3 mM MgCl2, 3 mM reduced glutathione (GSH), 0.1 mM GTP, 1 mM 3-isobutyl-1-methylxanthine (IBMX), suitably diluted enzyme solution and the test substance or, in the control experiments, solvent. The test substances were dissolved in dimethyl sulfoxide (DMSO) and the solution was diluted with DMSO/water such that the final concentration c of test substance in the test batch had the value indicated below. The DMSO concentration in the test batch was 5% (v/v). The reaction was started by addition of the sGC. The reaction mix was incubated at 37° C. for 15 to 20 minutes and then stopped by ice-cooling and addition of the stop reagent (50 mM EDTA, pH 8.0). An aliquot of 50 μl was taken and employed for the determination of the cGMP content using the acetylation protocol of the Amersham cGMP EIA kit. The absorption of the samples was measured at 450 nm (reference wavelength 620 nm) in a microtiter plate reading apparatus. The cGMP concentration was determined by means of a calibration curve, which was obtained under the same experimental conditions. The activation of the sGC by a test substance is indicated as n-fold stimulation of the basal enzyme activity which was found in the control experiments (with solvent instead of test substance) (calculated according to the formula n-fold stimulation=[cGMP]test substance/[cGMP]control).

Each structure is given as a SMILES string.

Molecule `O=C(Nc1ccc(Oc2ccccc2)cc1)c1ccccc1NS(=O)(=O)c1ccc(Cl)cc1` [Example 7, 2-(4-Chlorophenylsulfonylamino)-N-(4-phenoxyphenyl)benzamide] returned a melting point of 143 °C. For the same molecule, the n-fold stimulation in data set [1] (concentration c 100 μM) turned out to be 2.8 n-fold.

Turning to `O=C(Nc1ccc(Br)cc1)c1cc(Cl)ccc1NS(=O)(=O)c1ccc(Cl)cc1` [Example 9, 5-Chloro-2-(4-chlorophenylsulfonylamino)-N-(4-bromophenyl)benzamide], the melting point worked out at 210 °C. The molecule further gave a n-fold stimulation in data set [1] (concentration c 100 μM) of 1.6 n-fold.

`O=C(Nc1cccc(Cl)c1)c1cc(Cl)ccc1NS(=O)(=O)c1ccc(Cl)cc1` [Example 10, 5-Chloro-2-(4-chlorophenylsulfonylamino)-N-(3-chlorophenyl)benzamide]: the melting point worked out at 228 °C. The same molecule gave a n-fold stimulation in data set [1] (concentration c 100 μM) of 1.7 n-fold.

`COc1ccc(NC(=O)c2cc(Cl)ccc2NS(=O)(=O)c2ccc(Cl)cc2)cc1` [Example 11, 5-Chloro-2-(4-chlorophenylsulfonylamino)-N-(4-methoxyphenyl)benzamide] gave a melting point of 190 °C. Further, the n-fold stimulation in data set [1] (concentration c 100 μM) was 1.8 n-fold.

Take `O=C(Nc1ccc2ccccc2c1)c1cc(Cl)ccc1NS(=O)(=O)c1ccc(Cl)cc1` [Example 12, 5-Chloro-2-(4-chlorophenylsulfonylamino)-N-(2-naphthyl)benzamide]: the melting point was found to be 211 °C. Further, the n-fold stimulation in data set [1] (concentration c 25 μM) turned out to be 2.8 n-fold.

Molecule `O=C(Nc1cc(Cl)cc(Cl)c1)c1cc(Cl)ccc1NS(=O)(=O)c1ccc(F)cc1` [Example 13, 5-Chloro-2-(4-fluorophenylsulfonylamino)-N-(3,5-dichlorophenyl)benzamide] registered a melting point of 250 °C. Moreover, the n-fold stimulation in data set [1] (concentration c 100 μM) amounted to 1.8 n-fold.

On to `CCOC(=O)c1ccc(NC(=O)c2cc(Cl)ccc2NS(=O)(=O)c2ccc(Cl)cc2)cc1` [Example 14, Ethyl 4-(5-chloro-2-(4-chlorophenylsulfonylamino)benzoylamino)benzoate], for which the melting point was 185 °C. The same molecule showed a n-fold stimulation in data set [1] (concentration c 100 μM) of 1.7 n-fold.

For `CS(=O)(=O)N(c1ccc(NC(=O)c2cc(Cl)ccc2NS(=O)(=O)c2ccc(Cl)cc2)cc1)S(C)(=O)=O` [Example 15, 5-Chloro-2-(4-chlorophenylsulfonylamino)-N-(4-(bismethylsulfonylamino)phenyl)benzamide], the melting point was 235 °C. This molecule displayed a n-fold stimulation in data set [1] (concentration c 10 μM) of 9.9 n-fold.

Consider `CC(C)c1ccc(NC(=O)c2cc(Cl)ccc2NS(=O)(=O)c2ccc(Cl)cc2)cc1` [Example 16, 5-Chloro-2-(4-chlorophenylsulfonylamino)-N-(4-isopropylphenyl)benzamide], for which the melting point came out at 188 °C. The molecule further gave a n-fold stimulation in data set [1] (concentration c 100 μM) of 4.1 n-fold.

In the case of `CCOC(=O)c1cc(NC(=O)c2cc(Cl)ccc2NS(=O)(=O)c2ccc(Cl)c(Cl)c2)ccc1Cl` [Example 18, Ethyl 2-chloro-5-(5-chloro-2-(3,4-dichlorophenylsulfonylamino)benzoylamino)benzoate], the melting point was 202 °C. Also, the n-fold stimulation in data set [1] (concentration c 100 μM) is 3.2 n-fold.

`O=C(Nc1ccc(N2CCOCC2)cc1)c1cc(Cl)ccc1NS(=O)(=O)c1ccc(Cl)cc1` [Example 21, 5-Chloro-2-(4-chlorophenylsulfonylamino)-N-(4-(morpholin-4-yl)phenyl)benzamide] gave a melting point of 228.5 °C. This molecule gave a n-fold stimulation in data set [1] (concentration c 50 μM) of 8 n-fold.

Turning to `O=C(Nc1ccc(OCc2ccccc2)cc1)c1cc(Cl)ccc1NS(=O)(=O)c1ccc(Cl)cc1` [Example 23, 5-Chloro-2-(4-chlorophenylsulfonylamino)-N-(4-(benzyloxy)phenyl)benzamide], the melting point was 191 °C. In addition, the n-fold stimulation in data set [1] (concentration c 25 μM) is 2.2 n-fold.

The molecule `CC(=O)c1ccc(NC(=O)c2cc(Cl)ccc2NS(=O)(=O)c2ccc(Cl)cc2)cc1` [Example 24, 5-Chloro-2-(4-chlorophenylsulfonylamino)-N-(4-acetylphenyl)benzamide] showed a melting point of 226 °C. This molecule also yielded a n-fold stimulation in data set [1] (concentration c 50 μM) of 2.4 n-fold.
